This note sets out measurements from article PMC9933715 (Antimicrobial Agents and Chemotherapy, 2023).

For data set [1], the system named is DENV-R2A (Rluc-expressing DENV, serotype 2 strain 16681). The experiment in a line: microbe, parasite or virus in culture. The conditions noted are these: Dengue virus, Huh7.5, 48 h, read-out: DENV-R2A replication (fold DMSO) Mean, deconvolution screen, singletons, 50 µM, Huh7.5, 2 days postinfection. It is filed as cell-based, Dengue virus.
Data set [2] relates to ZIKV-R2A (strain FSS13025). The experiment in a line: microbe, parasite or virus in culture. The following applies: Zika virus, Huh7.5, 48 h, read-out: ZIKV-R2A replication (fold DMSO) Mean. The class given is cell-based.
Data set [3] has as its system Huh7.5 cells. Put plainly: Cell viability, CellTiter-Glo luminescent assay. The conditions noted are these: deconvolution screen, singletons, 50 µM, uninfected Huh7.5. (In general: ATP-based viability assays read luminescence as a measure of living cells.)

For `Nc1cnc(Cl)cn1` [PS-5654, Nc1cnc(Cl)cn1], the values for the activity at 50 µM in data set [1] and in data set [2] were 97% and 117%, respectively. Besides, the “Cell viability (fold DMSO) Mean” value in data set [3] is listed as 1.12 fold DMSO.

`Fc1cc(F)cc(-c2ccno2)c1` [PS-6845, Fc1cc(F)cc(c1)c2oncc2]: the activity at 50 µM was found to be 100% in data set [1] and 111% in data set [2]. In addition, the “Cell viability (fold DMSO) Mean” value in data set [3] is given as 1.15 fold DMSO.

As to `COc1ccc2cc[nH]c2n1` [SS-4327, COc1ccc2cc[nH]c2n1], the activity at 50 µM in data set [1] was 98%; in data set [2], 108%. In data set [3], the “Cell viability (fold DMSO) Mean” value was found to be 1.01 fold DMSO.

With `COc1ncc(Cl)cc1C#N` [PS-5618, COc1ncc(Cl)cc1C#N], the activity at 50 µM turned out to be 108% in data set [1] and 97% in data set [2]. Further, in data set [3], the “Cell viability (fold DMSO) Mean” value came to 1.05 fold DMSO.

As for `Clc1ncc(Cn2ccnc2)s1` [Compound 8P-013, Clc1ncc(Cn2ccnc2)s1], the activity at 50 µM is 104% in data set [1] and 118% in data set [2]. Further, in data set [3], the “Cell viability (fold DMSO) Mean” value is recorded as 0.94 fold DMSO.

In the case of `N#CCOc1cccc2ccccc12` [MS-7107, N#CCOc1cccc2ccccc12], the results for the activity at 50 µM in data set [1] and in data set [2] were 65% and 84%, respectively. In addition, the “Cell viability (fold DMSO) Mean” value in data set [3] amounted to 1.01 fold DMSO.

As to `Cc1ccc(C2CNCCN2)cc1` (stereo not drawn) [FS-3294, Cc1ccc(cc1)C2CNCCN2], the activity at 50 µM worked out at 74% in data set [1] and 96% in data set [2]. In addition, the “Cell viability (fold DMSO) Mean” value in data set [3] was 1.08 fold DMSO.

Turning to `Cc1cc(O)cc(C)c1CO` [DK-0713, Cc1cc(O)cc(C)c1CO], the figures for the activity at 50 µM in data set [1] and in data set [2] were 96% and 93%, respectively. Further, the “Cell viability (fold DMSO) Mean” value in data set [3] is reported as 1.04 fold DMSO.

Regarding `CC(=O)c1cc(Br)cs1` [Compound 10X-0139, CC(=O)c1cc(Br)cs1], the activity at 50 µM in data set [1] turned out to be 98%; in data set [2] it was 108%. In addition, the “Cell viability (fold DMSO) Mean” value in data set [3] worked out at 1.20 fold DMSO.

Turning to `Cc1cccc(N2CCNCC2)n1` [FS-1568, Cc1cccc(n1)N2CCNCC2], the activity at 50 µM in data set [1] worked out at 91%; in data set [2], 102%. The “Cell viability (fold DMSO) Mean” value in data set [3] worked out at 1.22 fold DMSO.

For `CNC(=O)c1cc(Br)c[nH]1` [Compound 10Y-0822, CNC(=O)c1cc(Br)c[nH]1], the results for the activity at 50 µM in data set [1] and in data set [2] were 75% and 77%, respectively. Moreover, the “Cell viability (fold DMSO) Mean” value in data set [3] was 0.89 fold DMSO.

For `Cc1onc(-c2ccccc2)c1C#N` [Compound 10B-058, Cc1onc(c2ccccc2)c1C#N], the values for the activity at 50 µM in data set [1] and in data set [2] were 102% and 106%, respectively. Further, in data set [3], the “Cell viability (fold DMSO) Mean” value turned out to be 0.98 fold DMSO.

`CN1C(=O)Cc2ccccc2C1=O` [Compound 10L-733, CN1C(=O)Cc2ccccc2C1=O]: the activity at 50 µM in data set [1] is 101%; in data set [2], 114%. For the same compound, the “Cell viability (fold DMSO) Mean” value in data set [3] stood at 0.94 fold DMSO.

For the compound `Nc1cccnc1Cl` [PS-5762, Nc1cccnc1Cl], the activity at 50 µM in data set [1] was 106%; in data set [2], 109%. Moreover, the “Cell viability (fold DMSO) Mean” value in data set [3] stood at 1.10 fold DMSO.

For `CSc1ccccc1N1CCNCC1` [SS-4074, CSc1ccccc1N2CCNCC2], the activity at 50 µM in data set [1] was 79%; in data set [2], 100%. Further, the “Cell viability (fold DMSO) Mean” value in data set [3] was determined as 0.92 fold DMSO.

As to `Nc1ccccc1N1CCCCC1` [PS-4134, Nc1ccccc1N2CCCCC2], the values for the activity at 50 µM in data set [1] and in data set [2] were 111% and 107%, respectively. For the same compound, the “Cell viability (fold DMSO) Mean” value in data set [3] worked out at 1.12 fold DMSO.

With `O=C(O)C(O)c1cc(F)cc(F)c1` (stereo not drawn) [PS-6482, OC(C(=O)O)c1cc(F)cc(F)c1], the values for the activity at 50 µM in data set [1] and in data set [2] were 101% and 110%, respectively. For the same compound, in data set [3], the “Cell viability (fold DMSO) Mean” value was determined as 1.08 fold DMSO.

Turning to `Cc1cc(C)n2ccnc2c1` [Compound 9X-0854, Cc1cc(C)n2ccnc2c1], the activity at 50 µM in data set [1] was found to be 94%; in data set [2], 98%. Moreover, the “Cell viability (fold DMSO) Mean” value in data set [3] is on record as 1.21 fold DMSO.

For the compound `CN(C)C(=O)c1ccccc1Br` [PS-4942, CN(C)C(=O)c1ccccc1Br], the activity at 50 µM in data set [1] came to 107%; in data set [2], 112%. Moreover, the “Cell viability (fold DMSO) Mean” value in data set [3] is 1.07 fold DMSO.

For the compound `Clc1[nH]ccc2nccc1-2` [PS-4776, Clc1[nH]ccc2nccc12], the activity at 50 µM in data set [1] was determined as 84%; in data set [2], 100%. Also, the “Cell viability (fold DMSO) Mean” value in data set [3] was 1.13 fold DMSO.

`Cn1cncc1C(=O)O` [AS-5483, Cn1cncc1C(=O)O]: the activity at 50 µM in data set [1] and in data set [2] was 99% each time. Moreover, the “Cell viability (fold DMSO) Mean” value in data set [3] stood at 1.12 fold DMSO.

Regarding `OCc1c[nH]c(-c2ccccc2)n1` [CB-0713, OCc1c[nH]c(n1)c2ccccc2], the activity at 50 µM in data set [1] was 92%; in data set [2], 100%. Besides, the “Cell viability (fold DMSO) Mean” value in data set [3] is 1.02 fold DMSO.

With `Clc1ncc(CN2CCCCC2)s1` [Compound 8N-010, Clc1ncc(CN2CCCCC2)s1], the activity at 50 µM was determined as 101% in data set [1] and 111% in data set [2]. In addition, in data set [3], the “Cell viability (fold DMSO) Mean” value was 0.95 fold DMSO.

As for `CN1CCN(c2ccccc2CN)CC1` [PS-3674, CN1CCN(CC1)c2ccccc2CN], the figures for the activity at 50 µM in data set [1] and in data set [2] were 60% and 89%, respectively. In addition, the “Cell viability (fold DMSO) Mean” value in data set [3] is 0.94 fold DMSO.

Take `N#Cc1cccc(O)c1` [PS-5804, Oc1cccc(c1)C#N]: the results for the activity at 50 µM in data set [1] and in data set [2] were 102% and 115%, respectively. The “Cell viability (fold DMSO) Mean” value in data set [3] was determined as 1.16 fold DMSO.

Take `OCC1CN(Cc2ccccc2)CCO1` (stereo not drawn) [PS-4274, OCC1CN(Cc2ccccc2)CCO1]: the values for the activity at 50 µM in data set [1] and in data set [2] were 100% and 116%, respectively. Further, the “Cell viability (fold DMSO) Mean” value in data set [3] came out at 1.11 fold DMSO.

Regarding `NC(=O)C1CCCNC1` (stereo not drawn) [PS-3699, NC(=O)C1CCCNC1], the activity at 50 µM in data set [1] is 95%; in data set [2], 113%. Further, in data set [3], the “Cell viability (fold DMSO) Mean” value stood at 0.94 fold DMSO.

On to `Cc1onc(-c2ccccc2)c1N` [PS-4715, Cc1onc(c1N)c2ccccc2], for which the values for the activity at 50 µM in data set [1] and in data set [2] were 88% and 113%, respectively. Also, in data set [3], the “Cell viability (fold DMSO) Mean” value amounted to 1.05 fold DMSO.

For `CC1(C)CN2C(=O)c3ccccc3C2S1` (stereo not drawn) [Compound 12R-0242, CC1(C)CN2C(S1)c3ccccc3C2=O], the activity at 50 µM is 62% in data set [1] and 74% in data set [2]. Further, the “Cell viability (fold DMSO) Mean” value in data set [3] came to 0.81 fold DMSO.

As to `COC(=O)c1cc(Br)no1` [PS-3994, COC(=O)c1onc(Br)c1], the activity at 50 µM in data set [1] was 98%; in data set [2], 114%. Further, the “Cell viability (fold DMSO) Mean” value in data set [3] is on record as 1.07 fold DMSO.

As for `CC(=O)c1ccc2cc(O)ccc2c1` [Compound 8X-0242, CC(=O)c1ccc2cc(O)ccc2c1], the activity at 50 µM amounted to 86% in data set [1] and 81% in data set [2]. Moreover, the “Cell viability (fold DMSO) Mean” value in data set [3] is recorded as 1.00 fold DMSO.

On to `CC(=O)c1ccccc1-n1ccnc1` [Compound 1B-028, CC(=O)c1ccccc1n2ccnc2], for which the activity at 50 µM was determined as 59% in data set [1] and 58% in data set [2]. The “Cell viability (fold DMSO) Mean” value in data set [3] turned out to be 0.78 fold DMSO.
